Key:
Amaranthus retroflexus = assay: Weeding effect in post-emergence stage; assay type: in vivo; conditions: 250 g/ha; 2 leaf stage; 15 days after application; fresh weight control rate
Source text: (§1) The activity level criteria for harmful plant damage (i.e., growth control rate) are as follows: • Level 5: growth control rate is above 85%; • Level 4: growth control rate is greater than or equal to 60% and less than 85%; • Level 3: growth control rate is greater than or equal to 40% and less than 60%; • Level 2: growth control rate is greater than or equal to 20% and less than 40%; • Level 1: growth control rate is greater than or equal to 5% and less than 20%; • Level 0: growth control rate is less than 5%.
(§2) The above growth control rates are fresh weight control rates.
(§3) Experiment on weeding effect in post-emergence stage: monocotyledonous and dicotyledonous weed seeds (Descurainia sophia, Capsella bursa-pastoris, Galium aparine, Stellaria media, Lithospermum arvense, Rorippa indica, Alopecurus aequalis, Beckmannia syzigachne, Sclerochloa dura, Phleum paniculatum, Bromus japonicus, Aegilops tauschii, Phalaris arundinacea, Amaranthus retroflexus, Chenopodiaceae, Commelina communis, Sonchus arvensis, convolvulus arvensis, Cirsium setosum, Solanum nigrum, Acalypha australis, Digitaria sanguinalis, Echinochloa crusgalli, Setaria viridis, Setaria glauca, Leptochloa chinensis, Monochoria vaginalis, Sagittaria trifolia, Scirpus juncoides, Cyperus rotundus, Cyperus iria, Cyperus difformis, Fimbristylis, Portulaca oleracea, Xanthium sibiricum, Pharbitis nil) and major crop seeds (wheat, corn, rice, soybean, cotton, oilseed rape, millet, sorghum, potato, sesame, ricinus) were placed in plastic pots filled with soil, then covered with 0.5-2 cm of soil, allowed to grow in a good greenhouse environment. After 2 weeks of sowing, the test plants were treated in the 2 leaf stage. The tested compounds of the present invention were respectively dissolved in acetone, then added with Tween 80 and 1.5 liter/ha of emulsifiable concentrate of methyl oleate as synergist, diluted with a certain amount of water to obtain a solution with a certain concentration, and sprayed with a spray tower onto the plants. After the application, the plants were cultured for 15 days in the greenhouse, and then the experimental results of the weeding were counted. The doses of the used compounds were 500, 250, 125, 60, 30, 15 g/ha, and the averages were obtained by repeating for three times.

Echinochloa crusgali = assay: Weeding effect in post-emergence stage; assay type: in vivo; conditions: 250 g/ha; 2 leaf stage; 15 days after application; fresh weight control rate
Source text: as §1, §2, §3

Structure (SMILES) | weeding effect in post-emergence stage, activity level (growth control rate), Amaranthus retroflexus (Amaranthus retroflexus) | weeding effect in post-emergence stage, activity level (growth control rate), Echinochloa crusgali (Echinochloa crusgali)
Cc1nnc(NC(=O)c2ccc(C(F)(F)F)c([S@+]([O-])CCC=O)c2F)o1 [Compound 192] | 5 (Level 5: growth control rate is above 85%) | 5 (Level 5: growth control rate is above 85%)
C=CC[S@@+]([O-])c1c(S(C)(=O)=O)ccc(C(=O)Nc2nnc(C)o2)c1C [Compound 496] | 5 (Level 5: growth control rate is above 85%) | 5 (Level 5: growth control rate is above 85%)
C#CC[S@@+]([O-])c1c(S(C)(=O)=O)ccc(C(=O)Nc2nnc(C)o2)c1C [Compound 497] | 5 (Level 5: growth control rate is above 85%) | 5 (Level 5: growth control rate is above 85%)
CC[S@@+]([O-])c1c(C(F)(F)F)ccc(C(=O)N(C(=O)OC)c2nnc(C)o2)c1F [Compound 231] | 5 (Level 5: growth control rate is above 85%) | 5 (Level 5: growth control rate is above 85%)
CC[S@@+]([O-])c1c(C(F)(F)F)ccc(C(=O)N(C(=O)c2cn(C)nc2C)c2nnc(C)o2)c1F [Compound 223] | 5 (Level 5: growth control rate is above 85%) | 5 (Level 5: growth control rate is above 85%)
CCCCCCC[S@@+]([O-])c1c(C(F)(F)F)ccc(C(=O)Nc2nnc(C)o2)c1F [Compound 14] | 5 (Level 5: growth control rate is above 85%) | 5 (Level 5: growth control rate is above 85%)
CC(=O)C[S@@+]([O-])c1c(C(F)(F)F)ccc(C(=O)Nc2nnc(C)o2)c1F [Compound 193] | 5 (Level 5: growth control rate is above 85%) | 5 (Level 5: growth control rate is above 85%)
C#CCN(C(=O)c1ccc(C(F)(F)F)c([S@+]([O-])CC)c1F)c1nnc(C)o1 [Compound 214] | 5 (Level 5: growth control rate is above 85%) | 5 (Level 5: growth control rate is above 85%)
COc1c(C(=O)Nc2nnc(C)o2)ccc(C(F)(F)F)c1[S@+]([O-])Cc1cn(C)nc1C [Compound 356] | 5 (Level 5: growth control rate is above 85%) | 5 (Level 5: growth control rate is above 85%)
Cc1nnc(NC(=O)c2ccc(S(C)(=O)=O)c([S@+]([O-])CC(F)(F)F)c2C)o1 [Compound 500] | 5 (Level 5: growth control rate is above 85%) | 5 (Level 5: growth control rate is above 85%)
Cc1nnc(NC(=O)c2ccc(C(C)C)c([S@@+](C)[O-])c2C)o1 [Compound 486] | 5 (Level 5: growth control rate is above 85%) | 5 (Level 5: growth control rate is above 85%)
Cc1c(C(=O)Nc2nnnn2C)ccc(S(C)(=O)=O)c1[S@+]([O-])CC(C)C [Compound 515] | 5 (Level 5: growth control rate is above 85%) | 5 (Level 5: growth control rate is above 85%)
CC[S@@+]([O-])c1c(C(F)(F)F)ccc(C(=O)Nc2nnc(C3CC3)o2)c1OC [Compound 428] | 5 (Level 5: growth control rate is above 85%) | 5 (Level 5: growth control rate is above 85%)
Cc1c(C(=O)Nc2nnnn2C)ccc(S(C)(=O)=O)c1[S@+]([O-])C(C)C [Compound 513] | 5 (Level 5: growth control rate is above 85%) | 5 (Level 5: growth control rate is above 85%)
Cc1nnc(NC(=O)c2ccc(C(F)(F)F)c([S@+]([O-])CCC3CCCCC3)c2F)o1 [Compound 18] | 5 (Level 5: growth control rate is above 85%) | 5 (Level 5: growth control rate is above 85%)
Cc1nnc(NC(=O)c2ccc(C)c([S@+]([O-])C(C)C)c2C)o1 [Compound 483] | 5 (Level 5: growth control rate is above 85%) | 5 (Level 5: growth control rate is above 85%)
Cc1nnc(NC(=O)c2ccc(C)c([S@+]([O-])CC(C)C)c2C)o1 [Compound 484] | 5 (Level 5: growth control rate is above 85%) | 5 (Level 5: growth control rate is above 85%)
CC[S@@+]([O-])c1c(C(F)(F)F)ccc(C(=O)Nc2ncnn2C)c1OC [Compound 471] | 5 (Level 5: growth control rate is above 85%) | 5 (Level 5: growth control rate is above 85%)
Cc1nnc(NC(=O)c2ccc(S(C)(=O)=O)c([S@+]([O-])CC3CC3)c2C)o1 [Compound 498] | 5 (Level 5: growth control rate is above 85%) | 5 (Level 5: growth control rate is above 85%)
COc1c(C(=O)Nc2nnc(C)o2)ccc(C(F)(F)F)c1[S+]([O-])COC(=O)C(C)(C)C (stereo not drawn) [Compound 355] | 5 (Level 5: growth control rate is above 85%) | 5 (Level 5: growth control rate is above 85%)
Cc1nnc(NC(=O)c2ccc(C(F)(F)F)c([S@@+]([O-])C(=O)N(C)C)c2F)o1 [Compound 176] | 5 (Level 5: growth control rate is above 85%) | 5 (Level 5: growth control rate is above 85%)
Cc1nnc(NC(=O)c2ccc(S(C)(=O)=O)c([S@@+](C)[O-])c2C)o1 [Compound 491] | 5 (Level 5: growth control rate is above 85%) | 5 (Level 5: growth control rate is above 85%)
COC(=O)CC[S@@+]([O-])c1c(C(F)(F)F)ccc(C(=O)Nc2nnc(C)o2)c1OC [Compound 354] | 5 (Level 5: growth control rate is above 85%) | 5 (Level 5: growth control rate is above 85%)
Cc1ccc(C(=O)Nc2nnnn2C)c(C)c1[S@+]([O-])CC(C)C [Compound 477] | 5 (Level 5: growth control rate is above 85%) | 5 (Level 5: growth control rate is above 85%)
